Test results taken from patent US20030013658A1, “Small peptides and methods for treatment of asthma and inflammation” (Hisatek, LLC, priority 1997, published 2003).
Entries after “also recorded” stand apart in the source; their conditions may differ. Where no end group is shown, it is not given here. The star is where a group is joined. For = O=C*

System: OVA-sensitized/challenged mice
Assay: OVA-induced bronchial asthma mouse model (Standard/Resolution protocols, 1-3 month), airway eosinophils and mucus plugs
Format: in vivo
Excerpt: The OVA-induced Bronchial Asthma Mouse Model for Inhibition of Mast Cell Degranulation
Reagents: Crystalline OVA was obtained from Pierce Chem. Co. (Rockford, Ill.) aluminum potassium sulfate (alum) from Sigma Chem. Co. (St. Louis, Mo.), pyrogen-free distilled water from Baxter, Healthcare Corporation (Deerfield, Ill.), 0.9% sodium chloride (normal saline) from Lymphomed (Deerfield, Ill.) and Trappsol™ HPB-L100 (aqueous hydroxypropyl beta cyclodextrin; 45 wt/vol % aqueous solution) from Cyclodextrin Technologies Development, Inc. (Gainesville, Fla.). The OVA (500 μg/ml in normal saline) was mixed with equal volumes of 10% (wt/vol) alum in distilled water. The mixture (pH 6.5 using 10 N NaOH) after incubation for 60 minutes at room temperature underwent centrifugation at 750 g for 5 minutes; the pellet was resuspended to the original volume in distilled water and used within one hour.
The selective 5-lipoxtgenase inhibitor, Zileuton (N-[1-benzo[b]thien-2-ylethyl]-N-hydroxyurea; J. Pharmacol Exp Ther. 1991; 256: 929-937), was kindly provided by Drs. Bell and George W. Carter (Abbott Laboratories, Abbott Part, Ill.). Zileuton was dissolved in Trappsol.™. Histatek, Inc. (Seattle, Wash.) provided the mast cell degranulation inhibitor, f-Met-Leu-Phe-Phe (“HK-X”).
Female BALB/c […] (6-8 wk of age at purchase; D and K, Seattle Wash.) were housed under conventional conditions for the studies.
Allergen Immunization/Challenge Protocols: Mice received an i.p. injection of 0.2 ml (100 μg) of OVA with alum on the different protocols of Standard (FIG. 5A) and Resolution (FIG. 5B) (J. Exp Med. 1996; 184: 1483-1494). According to the different protocols, mice were anesthetized with 0.2 ml i.p. of ketamine (0.44 mg/ml)/xylazine (6.3 mg/ml) in normal saline before receiving an intranasal (i.n.) does of 100 μg OVA in 0.05 ml normal saline and an i.n. dose of 50 μg OVA in 0.05 ml normal saline separately on different days. Two control groups were used. Accordingly, the first group received normal saline with alum i.p. and normal saline without alum i.n.; the second group received OVA with alum i.p., OVA without alum i.n., and normal saline, alone.
The trachea and left lung (the right lung is used for bronchoalveolar lavage (“BAL”)) were obtained and fixed in 10% neutral formaldehyde solution at room temperature for 6˜15 h. After being embedded in paraffin, the tissues were cut into 5-um sections and processed with the different staining or immunolabling further. Discombe's eosinophil staining was used for counting the cell numbers with the counterstain of methylene blue. The eosinophil number per unit airway area (2,200 μm^2) was determined by morphometry (J. Pathol. 1992; 166: 395-404; Am Rev Respir Dis. 1993; 147:448-456). Fibrosis was identified with the Masson's trichrome staining. Airway mucus was identified by the following staining method: methylene blue, hematoxylin and eosin, mucicarmine, alcian blue, and alcian blue/periodic acid-Schiff (PAS) reaction (Troyer, H., “Carbohydrates” in Principles and Techniques of Histochemistry, Little, Brown and Company, Boston, Mass., 1980: 89-121; Sheehan, D. C., et al., “Carbohydrates” in Theory and Practice of Histotechnology, Battle Press, Columbus, Ohio, 1980: 159-179) Mucin was stained with mucicarmine solution; metanil yellow counterstain was employed. Acidic mucin and sulfated mucosubstances were stained with alcian blue, pH 2.5; nuclear fast red counterstain was used. Neutral and acidic mucosubstances were identified by alcian blue, pH 2.5, and PAS reaction. The degree of mucus plugging of the airways (0.5-0.8 mm in diameter) was also assessed by morphometry. The percent occlusion of airway diameter by mucus was classified on a semiquantitative scale from 0 to 4+ as described in Figure Legends. The histologic and morphometric analyses were performed by individuals blinded to the protocol design. […]

## f-Met-Leu-Phe-Phe (For-MLFF) [Example 9]
1 month
  AIRWAY INFLUX OF EOSINOPHILS (%): 14.20%
28 days
  % of plug of airway: 19%
28 days of treatment
  PERCENTAGE OF EOSINOPHILS IN AIRWAY TISSUE: 14.2%
28 days, semiquantitative scale 0 to 4+
  MUCUS PLUG SCORE IN AIRWAYS: 1.4
HK-X given before i.n. OVA, morphometry, FIG. 6, listed as HK-X
  mucus accumulation / mucus release in airway: inhibits mucus accumulation in the airway; also recorded: airway mucus release in the airway (AW) lumen is markedly reduced
Compared to OVA-challenge alone, FIG. 6C
  infiltration of the interstitial tissue by eosinophils: infiltration of the interstitial tissue by eosinophils is also reduced
Doses of 5 μg/kg and 10 μg/kg, FIG. 7
  formation of mucus plugs / mucus production in small airways: Both doses significantly reduce the mucus production in small airways
One month
  reduction of airway eosinophils compared with Zileuton: reduced eosinophils comparably at one month
Two and three months
  reduction of airway eosinophils compared with Zileuton: much more beneficially at two and three months
